In patent publication US20060205808A1, “Anti-inflammatory and cure for ageing, Alzheimer's disease on phloroglucinol derivatives” (Kaohsiung Medical University, priority 2005, published 2006):

Legend:
[1] = tested on: RAW 264.7 macrophage-like cells; experiment: NO production (nitrite accumulation, Griess reaction) in RAW 264.7 cells in response to LPS; assay type: cell-based; conditions: LPS (1 μg mL^−1), 24 h; for IC50: read-out: IC50, accumulation of NO2^− in culture media, RAW 264.7 cells
Experimental: (§1) Treatment of RAW 264.7 macrophage-like cells with LPS (1 μg mL^−1) or N9 microglial cells with LPS (10 ng mL^−1)/IFN-γ (10 U mL^−1) for 24 h induced NO production as assessed by measuring the accumulation of nitrite, a stable metabolite of NO, in the media, based on the Griess reaction. […] 1400 W was used in this experiment as a positive control.

N9 microglial cells = experiment: NO production (nitrite accumulation, Griess reaction) in N9 cells in response to LPS/IFN-γ; assay type: cell-based; conditions: LPS (10 ng mL^−1)/IFN-γ (10 U mL^−1); for IC50: read-out: IC50, accumulation of NO2^− in culture media, N9 cells
Experimental: as §1

rat neutrophils [2] = experiment: fMLP/CB-induced superoxide anion generation in rat neutrophils; assay type: cell-based
Experimental: (§2) FMLP (0.3 μM)/CB (5 μg mL^−1) or phorbol myristate acetate (PMA) (3 nM) stimulated superoxide anion generation in rat neutrophils. […] Trifluoperazine was used in this experiment as a positive control.

rat neutrophils [3] = experiment: release of β-glucuronidase from rat neutrophils stimulated with fMLP/CB; assay type: cell-based; conditions: fMLP (1 μM)/CB (5 μg mL^−1); for IC50: means ± s.e.m. (n = 3-5)
rat neutrophils [4] = experiment: release of lysozyme from rat neutrophils stimulated with fMLP/CB; assay type: cell-based; conditions: fMLP (1 μM)/CB (5 μg mL^−1); for IC50: means ± s.e.m. (n = 3-5)
rat neutrophils [5] = experiment: PMA-induced superoxide anion generation in rat neutrophils; assay type: cell-based; conditions: PMA (3 nM)
Experimental: as §2

[6] = tested on: mast cells and neutrophils; conditions: background statement; cited from earlier work

Row | IC50 [1] [µM] | IC50 (N9 microglial cells; 24 h) [µM] | IC50 (rat neutrophils [2]; fMLP (0.3 μM)/CB (5 μg mL^−1)) [µM] | IC50 (rat neutrophils [3]) [µM] | IC50 (rat neutrophils [4]) [µM] | IC50 (rat neutrophils [5]) [µM] | Compound | % of inhibition at the highest concentration, NO2^− accumulation, RAW 264.7 cells [1] [%] | % of inhibition at the highest concentration, superoxide anion, PMA (rat neutrophils [5]) [%] | inhibition of chemical mediators release from mast cells and neutrophils (in words) [6] | further results
1 | > 10 | > 3 | 17 ± 0.9 | 26.9 ± 2.6 | 20 ± 1.3 | > 30 | CC(C)=CCC1CC2(CC=C(C)C)C(=O)C(C(=O)C(C)C)(C(=O)C(C=CC(C)(C)O)=C2O)C1(C)C (centres unmarked) [Compound 1, Garcinielliptone F] | 22.9 ± 2.9 | 46.8 ± 4.5 |  | % of inhibition at the highest concentration, NO2^− accumulation, N9 cells (N9 microglial cells; 24 h, highest concentration): 31.2 ± 0.7%; inhibitory effect on fMLP/CB-induced superoxide anion generation (in words) (rat neutrophils [2]; fMLP/CB (5 μg mL^−1)): potent inhibitory effect; inhibitory effect on release of β-glucuronidase (in words) (rat neutrophils [3]): potent inhibitory effects; inhibitory effect on release of lysozyme (in words) (rat neutrophils [4]): potent inhibitory effects
2 | 3 ± 0.2 | 2.2 ± 0.1 |  |  |  |  | CC(=N)NCc1cccc(CN)c1 [Compound 1400W, N-(3-Aminomethyl) benzylacetamidine, reference compound] |  |  |  | 
3 |  |  |  |  |  |  | CC(C)=CCC1=C2O[C@H](C(C)(C)O)C[C@@]23C[C@H](CC=C(C)C)C(C)(C)[C@@](C(=O)C(C)C)(C1=O)C3=O [Garsubellin A] |  |  | strongly inhibited | 
4 |  |  |  |  |  |  | CN1CCN(CCCN2c3ccccc3Sc3ccc(C(F)(F)F)cc32)CC1 [Trifluoperazine, reference compound] |  |  |  | IC50 (rat neutrophils [2]; Neutrophil, fMLP (0.3 μM)/CB (5 μg mL^−1)): 6.6 ± 0.2 µM; IC50 (rat neutrophils [3]; Neutrophil): 10.6 ± 0.9 µM; IC50 (rat neutrophils [4]; Neutrophil): 13.2 ± 0.7 µM; IC50 (rat neutrophils [5]; Neutrophil): 2.7 ± 0.6 µM
5 |  |  |  |  |  |  | CC(C)=CC[C@H]1C[C@]2(CC=C(C)C)C(=O)[C@]3(CC=C(C)C)O[C@@]1(C(=O)C(C)C)[C@@]2(O)C(C)(C)C3=O [garcinielliptin oxide] |  |  | strongly inhibited | 
6 | > 30 | 7.4 ± 0.2 | > 30 | > 30 | > 30 | > 30 | Garcinielliptone I [Compound 4] | 17.4 ± 1.5 | −76.3 ± 7.3 |  | effect on production of NO induced by LPS/IFN-γ in N9 cells (in words) (N9 microglial cells): potent inhibitory effect; % of inhibition at the highest concentration, superoxide anion, fMLP/CB (rat neutrophils [2]; fMLP (0.3 μM)/CB (5 μg mL^−1), highest concentration): 2.8 ± 5.7%; % of inhibition at the highest concentration, β-Glucuronidase release (rat neutrophils [3]; highest concentration): 15.6 ± 2.7%; % of inhibition at the highest concentration, Lysozyme release (rat neutrophils [4]; highest concentration): −1.6 ± 7.3%
